According to US7713969B2, “Compositions and methods for treatment of cancer” (ArQule, Inc., priority 2005, dated 2010):
pIC50: −log10 of the molar value.

Key:
[1] = test system: MDA-MB-231 human breast cancer xenograft; assay: MDA-MB-231 xenograft, intraperitoneal 160 mg/kg (Example 81); format: in vivo, mice; settings: 160 mg/kg intraperitoneally, q3d×10, lipiodol vehicle
Experimental: Athymic female nude mice (CRL:NU/NU-nuBR) were injected subcutaneously in the flank with MDA-MB-231 human breast cancer cells (8×10^6 cells/mouse). Prior to injection, MDA-MB-231 cells were cultured in DMEM (Invitrogen #11965-092) supplemented with 10% (v/v) heat inactivated fetal bovine serum (FBS), 1% Hepes buffer solution (Invitrogen #15630-080) and 1% Penicillin/Streptomycin (Invitrogen #15140-122) at 37° C. in 5% CO2. Tumors were allowed to grow to approximately 50 mm^3 in size. Animals were randomized into three groups of five animals per group. At day ten post injection, mice with established tumors were treated intraperitoneally with (±)-cis-3-(5,6-dihydro-4H-pyrrolo[3,2,1-ij]quinolin-1yl)-4(1H-indol-3-yl) pyrrolidine-2,5-dione (160 mg/kg), (±)-trans-3-(5,6-dihydro-4H-pyrrolo[3,2,1-ij]quinolin-1-yl)-4(1H-indol-3-yl)pyrrolidine-2,5-dione (160 mg/kg) administered in iodinated poppy seed oil (lipiodol) as the vehicle at 10 mg/ml, or vehicle control. Drug or vehicle was administered every three days for a total of ten doses (q3d×10). Tumor size was evaluated periodically during the study. For each subject, tumor volume was calculated using the formula (L×W^2)/2 where L and W were the length and width of the tumor, respectively. The arithmetic mean tumor volume was calculated for each treatment group+/−standard error of the mean (SEM). […]

[2] = test system: MDA-MB-231 cells or Paca-2 cells; assay: Cell survival in six-well plates, Wright-Giemsa stain (Example 77); format: cell-based; settings: Homo sapiens; 0.1-2 μM, cultures observed 10-15 days; cell line of the IC50 not stated
Experimental: Exponentially growing MDA-MB-231 cells or Paca-2 cells were seeded at 1,000 cells per well in six-well plates and allowed to attach for 24 hours. MDA-MB-231 and Paca-2 cells were cultured in DMEM supplemented with 10% (v/v) fetal calf serum (FCS) and 5 ml Penicillin/Streptomycin at 37° C. in 5% CO2. MDA-MB-231 and Paca-2 were established estrogen receptor negative human breast cancer and pancreatic carcinoma cell lines, respectively. (±)-cis-3-(5,6-dihydro-4H-pyrrolo[3,2,1-ij]quinolin-1yl)-4(1H-indol-3-yl)pyrrolidine-2,5-dione or (±)-trans-3-(5,6-dihydro-4H-pyrrolo[3,2,1-ij]quinolin-1-yl)-4(1H-indol-3-yl)pyrrolidine-2,5-dione were each dissolved at a concentration of 10 mM in DMSO, and separately added to cells at a concentration of 0.1, 0.25, 0.5, 1 or 2 μM. Control plates received DMSO alone, at the same percentage of total culture volume as that administered in conjunction with the highest concentration of drug. Cell cultures were observed daily for 10-15 days, then fixed and stained with modified Wright-Giemsa stain (Sigma). Treatment with (±)-cis-3-(5,6-dihydro-4H-pyrrolo [3,2,1-ij]quinolin-1yl)-4(1H-indol-3-yl)pyrrolidine-2,5-dione or (±)-trans-3-(5,6-dihydro-4H-pyrrolo[3,2,1-ij]quinolin-1-yl)-4(1H-indol-3-yl)pyrrolidine-2,5-dione results in cell death of MDA-MB-231 cells or Paca-2 cells. See, e.g., FIG. 2.

[3] = test system: Recombinant Protein Kinase C; assay: Protein Kinase C kinase reaction, Histone H1, autoradiography (Example 79); format: biochemical; settings: 0.05, 0.5, or 10 μM, 15 minutes at room temperature
Experimental: Recombinant Protein Kinase C (Calbiochem) (100 ng) was incubated with (±)-cis-3-(5,6-dihydro-4H-pyrrolo[3,2,1-ij]quinolin-1yl)-4(1H-indol-3-yl)pyrrolidine-2,5-dione or (±)-trans-3-(5,6-dihydro-4H-pyrrolo[3,2,1-ij]quinolin-1-yl)-4(1H-indol-3-yl)pyrrolidine-2,5-dione at 0.05, 0.5, or 10 μM for 15 minutes at room temperature. Subsequently, a radioactive labeling mix in kinase buffer (20 mM Tris-HCl pH 7.5, 10 mM MgCl2) containing 20 μM ATP, 0.2 μCi/μl γ^32P-ATP, 0.2 μg/μl Histone H1 (Upstate) was added to each sample. The kinase reaction was carried out for 5 minutes at room temperature. Reaction products were analyzed by 12% SDS-PAGE and autoradiography.

[4] = test system: HT29 human colon cancer xenograft; assay: Colon cancer xenograft model (Example 87); format: in vivo, mice; settings: for optimal tumor growth inhibition: daily 5 days on/2 off, 20 treatments
Experimental: In this human colon cancer xenograft model HT29 human colon cancer cells were inoculated subcutaneously into female athymic nude mice (5×10^6 cells/mouse) and allowed to form palpable tumors. Once the tumors reached approximately 60 mm^3, the animals were treated orally with either (−)-trans-3-(5,6-dihydro-4H-pyrrolo[3,2,1-ij]quinolin-1-yl)-4(1H-indol-3-yl)pyrrolidine-2,5-dione at 200 mg/kg or 300 mg/kg, or vehicle control daily (5 consecutive days, followed by a 2 day dosing holiday). (−)-trans-3-(5,6-dihydro-4H-pyrrolo[3,2,1-ij]quinolin-1-yl)-4(1H-indol-3-yl)pyrrolidine-2,5-dione was formulated in PEG 400:20% Vitamin E TPGS (60:40). The animals received a total of 20 treatments of either (−)-trans-3-(5,6-dihydro-4H-pyrrolo[3,2,1-ij]quinolin-1-yl)-4(1H-indol-3-yl) pyrrolidine-2,5-dione or vehicle control. Tumors were measured throughout treatment and the post-treatment observation period. Each point represents the mean±SEM of ten tumors. (See FIG. 11)

Protein Kinase C kinase activity in comparison to carrier alone [3]	Compound	reduction of normalized mean tumor volume compared to vehicle treated control [1] [%]	pIC50 [2]	change in body weight ([4]; 200 mg/kg or 300 mg/kg oral administration)	optimal tumor growth inhibition ([4]; 200 mg/kg orally) [%]	optimal tumor growth inhibition ([4]; 300 mg/kg orally) [%]
did not reduce kinase activity	O=C1NC(=O)[C@@H](c2cn3c4c(cccc24)CCC3)[C@@H]1c1c[nH]c2ccccc12 (racemic) [(±)-Trans-3-(5,6-dihydro-4H-pyrrolo[3,2,1-ij]quinolin-1-yl)-4(1H-indol-3-yl)pyrrolidine-2,5-dione]	43.5	6.30			
	O=C1NC(=O)C(c2cn3c4c(cccc24)CCC3)C1c1c[nH]c2ccccc12 (single isomer, unassigned; (-))			no significant change in body weight	39	55
